Assay results: patent US20090085008A1, “Cellulose compound composition and cellulose compound film” (FUJIFILM Corporation, priority 2005, published 2009)

Assay: Solubility in mixture solvent methylene chloride:methanol = 87:13
Type: physicochemical
Settings: Methylene chloride:Methanol = 87:13 (mass ratio)
Description: A test was conducted to evaluate the solubility of the compound represented by formula (1) or (2), which can be used in the present invention, in a halogen-containing mixture solution.

Q: For COc1cc(OC)c(C(=O)Oc2ccc(C(=O)Oc3ccc(-c4ccc(OC(=O)c5ccc(OC(=O)c6cc(OC)c(OC)cc6OC)cc5)cc4)cc3)cc2)cc1OC [Analogous compound], which Solubility is on record?
A: Its Solubility is 1%.
